From patent US11497731B2, “β-lactamase inhibitor” (NATIONAL UNIVERSITY CORPORATION TOKAI NATIONAL HIGHER …, priority 2018, dated 2022)
Read-outs that look alike come from different tables or passages of the source. Blank lines part the entries; values can stand above or below the compound they belong to.

Assays:
[1] = test system: bacteria (K. pneumoniae) in which a plasmid encoding NDM and VIM was introduced; assay: Mouse abdominal infection model, K. pneumoniae NDM and VIM strain; type: in vivo, mice; details: test substance 10 mg/kg
Method: (§1) The laboratory strain grown overnight on a Mueller-Hinton agar medium was scraped with a sterile swab, suspended in physiological saline, adjusted to 2-5×10^8 CFU/mL, and mixed with an equal amount of a 10% mucin solution (1-2.5×10^8 CFU/mL) to prepare a bacterial liquid. Mice (Crl:CD1(ICR), male, 4 weeks old (Charles River Laboratories Japan, Inc.)) acclimated for 4 days after arrival were weighed, and then infected by intraperitoneal administration of 250 μL of the prepared bacterial liquid per mouse. An antimicrobial drug (meropenem trihydrate (WAKO 137-15674)) and the test substance were dissolved in physiological saline. A first intraperitoneal administration of the antimicrobial drug (0.2 mg/kg) and/or the test substance (100 mg/kg) was performed 1 hour after infection. A second administration was performed 3 hours after infection, in the same manner as the first administration (up to this point, day 0).
The animal study was performed in the same manner as in Test Example 12, except that in addition to a strain of Escherichia coli in which a plasmid encoding a class B lactamase (IMP-1) was introduced, bacteria (K. pneumoniae) in which a plasmid encoding NDM and VIM was introduced were used as a laboratory strain, compound I was administered as a test substance, […], and the dosage of the test substance was 10 mg/kg. […]

[2] = test system: bacteria into which a plasmid encoding NDM-1 was introduced (pBCSK (+)/E. coli DH5a); assay: Drug susceptibility test (MIC), NDM-1-producing strain; type: cell-based; details: for MIC: Escherichia coli
Method: (§2) Plates for drug susceptibility test measurement were prepared by using 96- or 384-well U-bottom plates, a Mueller-Hinton liquid medium, and antimicrobial drugs (ceftazidime (CAZ), imipenem (IPM), meropenem (MPM), doripenem (DPM), and biapenem (BPM)). A 1/2 antimicrobial drug dilution series was made up to well 11 of, for example, a 96-well U-bottom plate so that the leftmost well 1 of row A contained an antimicrobial drug at the maximum concentration, the antimicrobial drug concentration in well 2 to the right of well 1 was 1/2 of the maximum concentration, the antimicrobial drug concentration in well 3 to the right of well 2 was 1/4 of the maximum concentration, and so on. […] An antimicrobial drug dilution series was made in each of rows B and C in the same manner as in row A. Further, 10 μg/mL and 50 μg/mL of a test substance (compound A) were added to row B and row C, respectively (FIG. 1).
(§3) Bacteria into which a plasmid encoding a class B β-lactamase (metallo-β-lactamase (MBL): NDM-1, or VIM-2) was introduced (pBCSK (+)/E. coli DH5a) were used as test bacteria. The test bacteria were adjusted to 10^8 cfu/mL with a Mueller-Hinton medium. Further, the test bacteria were diluted 10-fold with a Mueller-Hinton medium (10^7 cfu/mL). 5 μl of the test bacteria was collected and inoculated into the plates for drug susceptibility test measurement. After overnight culture at 35° C., the growth of the test bacteria was visually checked. The concentration of the antimicrobial drug in a well containing the lowest concentration of the antimicrobial drug among the wells in which no growth of the test bacteria was confirmed was defined as the minimal inhibitory concentration value (FIG. 1).
(§4) The drug susceptibility test was performed in the same manner as in Test Example 1, except that compounds A to C and E to I were used as test substances.
(§5) The test was performed in the same manner as in Test Example 1, except that X2a, X2b, X2c, X2d, X3a, and X4 were used as test substances (inhibitors). The inhibitor concentration was 10 μg/mL.

[3] = test system: bacteria into which a plasmid encoding IMP-1 was introduced (pBCSK (+)/E. coli DH5a); assay: Drug susceptibility test (MIC), IMP-1-producing strain; type: cell-based; details: MIC of meropenem with inhibitor 10 μg/mL
β-lactamase = assay: Inhibition constant (Ki) tests, summary statements over all enzymes; type: biochemical
Method: (§6) The inhibition constant (Ki) measurement test was performed in the following manner. The inhibition constant (Ki) was measured using various metallo-β-lactamases (final concentration: 10 nM). The imipenem decomposition activity (Δabs/min) at each point under the conditions of absorbance: 298 nm and temperature: 30° C. was measured by varying the concentration of imipenem as a substrate and the concentrations of test substances (compounds A to E) as inhibitors. Each measured value was fitted to the Lineweaver-Burk plot equation to calculate Ki.
(§7) The test was performed in the same manner as in Test Example 6, except that X2a, X2b, X2c, X2d, X3a, and X4 were used as test substances (inhibitors).

NDM-1 = NDM-1 (Klebsiella pneumoniae, UniProt C7C422); assay: Inhibition constant (Ki) measurement test, NDM-1; type: biochemical
Method: as §6, §7

[4] = test system: bacteria into which a plasmid encoding VIM-2 was introduced (pBCSK (+)/E. coli DH5a); assay: Drug susceptibility test (MIC), VIM-2-producing strain; type: cell-based; details: for MIC: Escherichia coli
Method: as §2, §3, §4, §5

VIM-2 = VIM-2 (Escherichia coli, UniProt Q5U7L7); assay: Inhibition constant (Ki) measurement test, VIM-2; type: biochemical
Method: as §6, §7

IMP-1 = IMP-1 (Serratia marcescens, UniProt P52699); assay: Inhibition constant (Ki) measurement test, IMP-1; type: biochemical
Method: as §6, §7

[5] = test system: β-lactamase-producing bacteria; assay: Drug susceptibility tests, summary statements over all strains; type: cell-based, E. coli; details: addition of the compound
Method: as §2, §3

[6] = molecular target: metallo-β-lactamase (IMP-1) (Serratia marcescens, UniProt P52699); assay: Enzyme activity measurement test (imipenem decomposition); type: biochemical
Method: A metallo-β-lactamase (IMP-1) (final concentration: 10 nM), and imipenem (final concentration: 100 μM) as a substrate were used. The imipenem decomposition activity (Dabs/min) at each point under the conditions of absorbance: 298 nm and temperature: 30° C. was measured by varying the concentrations of test substances (compounds Nos. 9-7, 9-8, and 9-9) as inhibitors (0 μM, 10 μM, and 100 μM). The activity when no test substance was added was defined as 100%, and the relative activity value when each test substance was individually added was calculated.

[7] = test system: class B β-lactamase (IMP-1, NDM-1, or VIM-2); assay: β-Lactamase inhibitory activity measurement test (imipenem decomposition); type: biochemical; details: test substance 0, 1, 10, 100 μM; enzyme 10 nM; imipenem 100 μM
Method: Each individual class B β-lactamase (IMP-1, NDM-1, or VIM-2; final concentration: 10 nM), imipenem (final concentration: 100 μM), and each individual test substance (compound A or compound Z shown below; final concentrations: 0, 1, 10, 100 μM) were mixed in an HEPES buffer. The imipenem decomposition activity (Dabs/min) under the conditions of absorbance: 298 nm and temperature: 30° C. was measured. The imipenem decomposition activity when no test substance was added was defined as 100%, and the imipenem residual decomposition activity when each test substance was individually added was plotted.

[8] = Reverse mutation test (Ames test); type: cell-based; details: entrusted to UBE Scientific Analysis Laboratory, Inc.
Excerpt: Compound A was used as a test substance.

[9] = test system: strains of Enterobacteriaceae bacteria that produce class B β-lactamases; assay: Drug susceptibility test 2; type: cell-based; details: addition of compound A
[10] = test system: strain of Escherichia coli in which a plasmid encoding a class B β-lactamase (IMP-1) was introduced; assay: Mouse abdominal infection model, E. coli IMP-1 strain; type: in vivo, mice
Method: After mice were infected with a laboratory strain (a strain of Escherichia coli in which a plasmid encoding a class B β-lactamase (IMP-1) was introduced), a test substance (compound A) was administered; and survival was observed. Specifically, the animal study was performed as follows.
as §1, with “0). […]” for “0).”

HeLa cells = assay: Toxicity evaluation test (MTT assay); type: cell-based; details: various concentrations
Method: Various concentrations of a test substance (compound A) or staurosporine were added to HeLa cells, and live cells were counted using an MTT assay kit (Promega Cat No. G4000).

[11] = test system: strains of Acinetobacter that produce class B β-lactamases; assay: Drug susceptibility test 3; type: cell-based; details: addition of compound A
[12] = test system: Empty vector (no class B lactamase produced), pBCSK (+)/E. coli DH5a; assay: Drug susceptibility test (MIC), empty vector strain; type: cell-based; details: Escherichia coli
[13] = read-out: MIC CAZ + compound A (10 μg/ml)
[14] = read-out: MIC CAZ + compound A (50 μg/ml)
[15] = read-out: MIC MPM + compound A (10 μg/ml)
[16] = imipenem substrate, enzyme 10 nM, 30° C., Lineweaver-Burk, read-out: Inhibition constant Ki NDM-1
[17] = read-out: MIC MPM + compound A (50 μg/ml)
[18] = imipenem substrate, enzyme 10 nM, 30° C., Lineweaver-Burk, read-out: Inhibition constant Ki VIM-2
[19] = imipenem substrate, enzyme 10 nM, 30° C., Lineweaver-Burk, read-out: Inhibition constant Ki IMP-1

NDM-1, sequence (C7C422 29-270, looked up, species assumed): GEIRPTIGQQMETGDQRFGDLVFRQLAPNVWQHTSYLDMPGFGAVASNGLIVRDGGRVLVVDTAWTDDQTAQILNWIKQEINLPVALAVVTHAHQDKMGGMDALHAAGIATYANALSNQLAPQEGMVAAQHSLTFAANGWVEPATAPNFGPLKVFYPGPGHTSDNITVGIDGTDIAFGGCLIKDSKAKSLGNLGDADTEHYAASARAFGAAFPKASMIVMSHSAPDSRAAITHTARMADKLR
metallo-β-lactamase (IMP-1), sequence (P52699 19-246, looked up, species assumed): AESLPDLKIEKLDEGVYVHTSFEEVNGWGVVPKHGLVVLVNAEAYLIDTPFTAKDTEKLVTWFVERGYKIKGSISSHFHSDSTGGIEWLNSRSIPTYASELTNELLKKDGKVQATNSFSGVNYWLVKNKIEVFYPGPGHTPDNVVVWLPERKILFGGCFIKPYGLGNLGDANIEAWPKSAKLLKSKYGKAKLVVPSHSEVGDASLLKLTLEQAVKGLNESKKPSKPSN
IMP-1, sequence (P52699 19-246, looked up, species assumed): as above

Compound: CCc1c(S(N)(=O)=O)c(C(=O)O)c(-c2ccccc2)n1C [Compound X2d]
survival rate (FIG. 13) ([1]; antimicrobial drug 2 mg/kg or 8 mg/kg): notably improved
Meropenem MIC NDM-1-producing strain ([2]; MIC of meropenem with inhibitor 10 μg/mL): 0.0625 µg/mL
Meropenem MIC IMP1-producing strain [3]: 0.031 µg/mL
β-lactamase activity inhibition (statement on Tables 2, 5) (β-lactamase): inhibits β-lactamase activity
Ki (NDM-1; Test Example 11, same manner as Test Example 6, read-out: Enzymatic Inhibition Effect Ki NDM-1): 80 nM
Ceftazidime MIC VIM-2-producing strain ([4]; MIC of ceftazidime with inhibitor 10 μg/mL): 1 µg/mL
Ki (VIM-2; Test Example 11, same manner as Test Example 6, read-out: Enzymatic Inhibition Effect Ki VIM-2): 33 nM
Ki (IMP-1; Test Example 11, same manner as Test Example 6, read-out: Enzymatic Inhibition Effect Ki IMP-1): 110 nM
effect on MICs of the antimicrobial drugs (statement on Tables 1, 2, 4) [5]: decreases the MICs

β-lactamase activity inhibition (statement on Table 3) [6]: inhibits β-lactamase activity
Compound: Cc1oc(C)c(S(=O)(=O)N2CC3CCCC3C2)c1C(=O)O (stereo not shown) [9-7]

β-lactamase activity inhibition (statement on Table 3) [6]: inhibits β-lactamase activity
Compound: Cc1oc(C)c(S(=O)(=O)N2CCC(C)(C)C2)c1C(=O)O [9-8]

Compound: Cc1oc(C)c(S(N)(=O)=O)c1C(=O)O [Compound A]
MIC [2, 13]: 256 µg/mL
MIC [2, 14]: 64 µg/mL
MIC [2, 15]: 0.25 µg/mL
β-lactamase inhibition (imipenem residual decomposition activity, FIG. 2) [7]: inhibit β-lactamases
Ki (NDM-1; [16]): 9820 nM
MIC [4, 13]: 1 µg/mL
MIC [4, 15]: 0.031 µg/mL
MIC [4, 17]: 0.031 µg/mL
Ki (VIM-2; [18]): 2800 nM
Ames test result [8]: negative
Ki (IMP-1; [19]): 220 nM
effect on MICs of the antimicrobial drugs (FIG. 3) [9]: decreases the MICs
survival rate (FIG. 10) ([10]; meropenem 0.2 mg/kg and test substance 100 mg/kg intraperitoneal, 1 and 3 hours after infection): notably improved
toxicity (live cells, MTT, FIG. 9) (HeLa cells): very low
effect on MICs of the antimicrobial drugs (FIG. 4) [11]: decreases the MICs
effect on MICs of the antimicrobial drugs (statement on Tables 1, 2, 4) [5]: decreases the MICs
MIC [12, 13]: 0.25 µg/mL
MIC [12, 14]: 0.25 µg/mL
MIC [12, 15]: 0.016 µg/mL
MIC [12, 17]: 0.016 µg/mL

Compound: CCc1c(C(=O)O)c(S(N)(=O)=O)c(CC)n1C [Compound I]
survival rate (FIG. 12) ([1]; antimicrobial drug 0.8 mg/kg or 4 mg/kg): notably improved
Ki (NDM-1; [16]): 840 nM
Ki (VIM-2; [18]): 20 nM
Ki (IMP-1; [19]): 2140 nM
survival rate (FIG. 11) ([10]; antimicrobial drug 0.8 mg/kg or 4 mg/kg, test substance 10 mg/kg): notably improved

β-lactamase activity inhibition (statement on Table 3) [6]: inhibits β-lactamase activity
Compound: CCc1ccccc1CNS(=O)(=O)c1c(C)oc(C)c1C(=O)O [9-9]
